Broadly, the IC50 is the concentration needed to halve the response being measured.

The source made the active and inactive calls. No cut-off for these calls is given here.

The target in assay [1] is T1, NAD-dependent protein deacetylase sirtuin-2 (Homo sapiens, UniProt Q8IXJ6).
T1 sequence (Q8IXJ6 whole entry): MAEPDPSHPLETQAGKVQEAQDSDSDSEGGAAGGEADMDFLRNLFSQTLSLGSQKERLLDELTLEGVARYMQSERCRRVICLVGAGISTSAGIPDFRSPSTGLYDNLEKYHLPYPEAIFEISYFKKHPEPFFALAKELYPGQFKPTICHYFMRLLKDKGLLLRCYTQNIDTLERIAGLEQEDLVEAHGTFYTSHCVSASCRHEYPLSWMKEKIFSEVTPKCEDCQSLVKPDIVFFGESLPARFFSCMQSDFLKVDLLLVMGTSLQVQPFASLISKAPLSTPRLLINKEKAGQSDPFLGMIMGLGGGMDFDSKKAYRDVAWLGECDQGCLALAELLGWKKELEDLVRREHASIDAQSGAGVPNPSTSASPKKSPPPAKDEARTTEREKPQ
In words: Inhibition of human Sirt2 (56 to 356 residues) deacetylation expressed in Escherichia coli BL21 (DE3) using ZMAL as substrate incubated for 4 hrs in presence of NAD+ by fluorescence based microplate reader assay.

The target of assay [2] is T1, NAD-dependent protein deacetylase sirtuin-2. As to the kind of experiment: Inhibition of human Sirt2 (56 to 356 residues) demyristoylation expressed in Escherichia coli BL21 (DE3) using ZMML as substrate incubated for 4 hrs in presence of NAD+ by fluorescence based microplate reader assay.
Assay [3] shares this target. As to the kind of experiment: Inhibition of recombinant human C-terminal His-tagged Sirt2 (50 to 356 residues) expressed in Escherichia coli using QPKKac as substrate.
Assay [4] shares this target. As to the kind of experiment: Inhibition of recombinant human C-terminal His-tagged Sirt2 (50 to 356 residues) expressed in Escherichia coli using r ETDKmyr as substrate.
A short description of assay [5]: Inhibition of schistosoma mansoni Sirt2 (21 to 322 residues) deacetylation expressed in Escherichia coli BL21 (DE3) using ZMAL as substrate incubated for 1 hr in presence of NAD+ by fluorescence based microplate reader assay.
Assay [6] addresses T2, NAD-dependent protein deacetylase sirtuin-2 (Homo sapiens) (UniProt Q8IXJ6).
T2 sequence (whole entry): T1 sequence (Q8IXJ6 whole entry)
The note with it: PC-3M-luc, dose 20.0 µM, time 6.0 hrs.

The next assay deals with PC-3M-luc. The note with it: Homo sapiens, dose 10-20 µM, time 3.0 day.
The target of assay [7] is T2, NAD-dependent protein deacetylase sirtuin-2 (Homo sapiens). As to the kind of experiment: Induction of human Sirt2 stabilization (56 to 356 residues) expressed in Escherichia coli BL21 (DE3) assessed as change in melting temperature at 25 uM in presence of NAD+ by differential scanning fluorimetry analysis. Background: DSF heats the sample and reads unfolding from a dye or from intrinsic fluorescence.

In another assay the test system is HeLa. As to the kind of experiment: Cytotoxicity against human HeLa cells at 1 to 25 uM incubated for 72 hrs by MTS assay. Format: functional, cell-based. The note with it: dose 1-25 µM. In general terms: Tetrazolium assays rely on reduction of a dye to a coloured formazan, in cell work by metabolically active cells.

Description for PC-3M-luc: Inhibition of cell migration in human PC-3M-luc cells at 10 to 20 uM incubated for 3 days

`COc1cccc(C(=O)Nc2ccc(-c3noc(CC4CCCN(Cc5cccc(F)c5C)C4)n3)cc2)c1` (stereo unspecified): the IC50 came to 0.88 µM in assay [1] and 22.3 µM in [2].
With `Cc1c(F)cccc1CN1CCCC(Cc2nc(-c3ccc(NC(=O)c4ccc(Cl)s4)cc3)no2)C1` (stereo unspecified), the concentration for half-maximal inhibition (IC50) in assay [1] amounted to 0.67 µM.
For `CCCCCCCCCCCCNC(=S)NCCCC[C@H](NS(C)(=O)=O)C(=O)N[C@@H](C)C(=O)N[C@@H](CCCNC(=N)N)C(N)=O`, the IC50 in assay [3] came to 0.04 µM; in [4] it was 0.17 µM.
For `CC(=O)Nc1ccc(-c2noc(CC3CCCN(Cc4cccc(F)c4C)C3)n2)cc1` (stereo unspecified), the IC50 came to 11 µM in assay [2] and 14 µM in [5].
For `Cc1c(F)cccc1CN1CCCC(Cc2nc(-c3ccc(NC(=S)Nc4ccccc4)cc3)no2)C1` (stereo unspecified), the IC50 in assay [1] is 0.9 µM; in [2], 6.2 µM.
Turning to `Cc1c(F)cccc1CN1CCCC(Cc2nc(-c3ccc(NC(=S)NCc4ccccc4)cc3)no2)C1` (stereo unspecified), the IC50 in [1] was 0.64 µM; in assay [2], 6.65 µM. Further, in [6], the inhibition entry was “Active”.
For `Cc1c(F)cccc1CN1CCCC(Cc2nc(-c3ccc(NC(=O)Nc4ccccc4)cc3)no2)C1` (stereo unspecified), the IC50 in [1] is 0.21 µM; in assay [2] it was 20.1 µM.
For `Cc1cc(C)nc(SCC(=O)Nc2ncc(Cc3cccc(OCc4cn(Cc5ccc(OCCN6CCOCC6)cc5)nn4)c3)s2)n1`, in assay [2], the IC50 was 2.4 µM. The inhibition result (in assay [6]; in the assay with PC-3M-luc) was “Active” in each case.
On to `COc1ccc(C(=O)Nc2ccc(-c3noc(CC4CCCN(Cc5cccc(F)c5C)C4)n3)cc2)cc1` (stereo unspecified), for which the IC50 in assay [1] turned out to be 0.43 µM; in assay [2], 12.6 µM.
With `Cc1c(F)cccc1CN1CCCC(Cc2nc(-c3ccc(NC(=O)NCc4ccccc4)cc3)no2)C1` (stereo unspecified), the half-inhibitory concentration (IC50) in [1] was 1.07 µM; in [2] it was 10.2 µM.
In the case of `COc1ccc(NC(=O)Nc2ccc(-c3noc(CC4CCCN(Cc5cccc(F)c5C)C4)n3)cc2)cc1` (stereo unspecified), the IC50 in [1] is 0.62 µM; in assay [2] it was 25 µM.
For the compound `Cc1c(F)cccc1CN1CCCC(Cc2nc(-c3ccc(N)cc3)no2)C1` (stereo unspecified), the IC50 was determined as 17.8 µM in assay [1] and 22.2 µM in [2]. In addition, the result (in assay [7]; with HeLa) was inactive. Also, the inhibition result (in [6]; with PC-3M-luc) was “inactive” each time.
On to `COc1ccc(CC(=O)Nc2ccc(-c3noc(CC4CCCN(Cc5cccc(F)c5C)C4)n3)cc2)cc1` (stereo unspecified), for which the concentration for half-maximal inhibition (IC50) worked out at 1.1 µM in assay [1] and 27.7 µM in [2].

(Values after ChEMBL document CHEMBL5500394, “Structure-Activity Studies of 1,2,4-Oxadiazoles for the Inhibition of the NAD+-Dependent Lysine Deacylase Sirtuin 2” (J Med Chem, 2024).)
